This is an account of results in ChEMBL document CHEMBL3507680, “University of Dundee, Gates Library screen for HepG2 cell viability”.

The nature of this series: Human HepG2 cell viability assay in 384 well format. Format: toxicity, cell-based. More on the design: dose 125 nL, time 70.5 hour; cytotoxicity at 70.5 h: concentration not given beside the values. To be noted: HepG2 cells, read-out: Inhibition.

Regarding `O=C(c1cc(-c2ccc(O)cc2)n[nH]1)N1CCCC1c1cccnc1` (stereo unspecified), the cytotoxicity at 70.5 h stood at 0.428%.
As for `Cc1cnc(C(=O)N2C[C@H]3CC[C@@H]2CN(S(=O)(=O)N(C)C)C3)cn1`, the cytotoxicity at 70.5 h was -7.71%.
Take `CCCn1cc(S(=O)(=O)N[C@H]2CN(C(C)=O)C[C@@H]2C2CC2)cn1`: the cytotoxicity at 70.5 h was -1.84%.
The figure for `Cc1ccc(C(C(=O)O)N(C)CCCN2CCOCC2)c(C)c1` (stereo unspecified) is -8.61%; for `CCC[C@@H]1CN(Cc2ccccc2OC(F)(F)F)C[C@H]1NC(C)=O` it is -20%; for `CCNC(=O)Cc1ccc(-c2cccc3c2CCNC3)cc1` it is -17.3%.
On to `Cc1nnc(SCCNC(=O)c2cc(S(N)(=O)=O)ccc2F)s1`, for which the cytotoxicity at 70.5 h was -5.1%.
As to `COCc1ncc(CN2CCC3(CCNCC3)CC2)cn1`, the cytotoxicity at 70.5 h is -2.36%.
The value for `CCC1CN(C(=O)c2cc(CN(C)CCc3ccccc3)on2)CCO1` (stereo unspecified) was -7.15%; that for `CC(C)N(C)S(=O)(=O)c1ccc2c(c1)CCN(C(=O)c1cscn1)C2` was -20.3%; that for `O=C(NC1CCCN(c2ncccn2)C1)c1cn2ccccc2n1` (stereo unspecified) was -6.6%.
As to `Cc1ccc2oc(=O)n(CCC(=O)N3CCC4(CN(C)C(=O)O4)C3)c2c1` (stereo unspecified), the cytotoxicity at 70.5 h is -1.59%.
The value for `Cc1nn(C)c(C)c1-c1ccnc(N2CCCN(CC(C)C)CC2)n1` was 4.01%; that for `Cc1nn(C(C)C)c(C)c1CN1CCC(c2cc(C(C)C)n[nH]2)CC1` was -0.772%.
Regarding `CCn1ccnc1CN1CCCn2nc(CNC(=O)C3CCC3)cc2C1`, the cytotoxicity at 70.5 h is -7.76%.
The value for `Cc1ccncc1C(=O)N1C[C@@H]2CN(c3ncccn3)C[C@]2(C(=O)O)C1` was -5.72%; that for `O=C(Cn1ncc(N2CCNCC2)cc1=O)NCCc1ccc(F)cc1` was -3.8%.
`O=C(N1CCOCC1)N1C[C@H]2CC[C@@H]1CN(C1Cc3ccccc3C1)C2`: the cytotoxicity at 70.5 h is 5.2%.
The value for `O=C1CN(C(=O)CC2C(=O)NCCN2CC2CCCCC2)CCN1` (stereo unspecified) was 28.9%; that for `Cc1nc(CN(C)C(=O)c2cccc(CC3CCNCC3)c2)no1` was 26.4%; that for `CCCS(=O)(=O)N1CCC2(CCC(=O)N(CCc3ccncc3)C2)CC1` was -9.81%.
On to `CCN1CCC(c2nnc(CN3CCCC3)n2C2CC2)CC1`, for which the cytotoxicity at 70.5 h is -9.82%.
`COCc1cc(CNC(=O)c2c(O)cccc2O)n[nH]1`: the cytotoxicity at 70.5 h is -1.82%.
The figure for `CC(=O)N1CC2(CCN(c3ccc4ccccc4n3)CC2)CC1C(=O)O` (stereo unspecified) is 4.97%; for `NC(=O)c1cc2c(nc1-c1ccc3c(c1)CCO3)CCC2` it is -5.32%; for `O=C(c1cc(=O)n(-c2ccccc2)[nH]1)N1CCOC(C(F)(F)F)C1` (stereo unspecified) it is 5.57%.
Take `CN1CCC(Cc2noc(-c3cn(Cc4ccccc4Cl)nn3)n2)CC1`: the cytotoxicity at 70.5 h was 0.52%.
With `Cc1cc(CN2CCN(CC3CC3)[C@@H]3CS(=O)(=O)C[C@@H]32)ccc1F`, the cytotoxicity at 70.5 h was 6.58%.
With `Cc1cc(C[C@@H]2COC[C@@H]2NC(=O)CCN2Cc3ccccc3C2)on1`, the cytotoxicity at 70.5 h amounted to 11.4%.
In the case of `c1cc(CN2CCC(Cc3noc(C4CC4)n3)CC2)c2c(c1)OCO2`, the cytotoxicity at 70.5 h amounted to 0.325%.
The figure for `O=C(COCc1ccccc1)N1CCCC(OCc2cccnc2)C1` (stereo unspecified) is 15.5%.
The value for `c1csc(CN2CCCN(c3ccc(Cn4ccnc4)cn3)CC2)c1` was -5.7%; that for `CC(C)c1nc(CN(C)C(=O)c2ccc3c(c2)OCC(=O)N3)cs1` was -6.75%.
The figure for `CC(C)[C@@H]1CN(c2ncc(F)cn2)C[C@H]1NS(=O)(=O)N(C)C` is 15.6%.
Take `CN1CCC(N(C)CCC(=O)N2CCC(Cc3ccc(F)cc3)CC2)C1` (stereo unspecified): the cytotoxicity at 70.5 h amounted to 24.2%.
The value for `Cc1nc(C2CCNCC2)cc(N2CCCC(C(=O)NCCCO)C2)n1` (stereo unspecified) was 10.6%; that for `COCC(=O)N1CCN(S(=O)(=O)c2cccs2)[C@H]2CS(=O)(=O)C[C@H]21` was -7.15%; that for `CSCCc1c(-c2ccccc2)ncn1CC(C)(C)N1CCOCC1` was -11.9%.
As to `O=C1CCCN1CCC1CCCCN1C(=O)c1ccc(SCCO)cc1` (stereo unspecified), the cytotoxicity at 70.5 h was -6.58%.
For the molecule `COc1ccc(NC(=O)CCC2CCCN(S(=O)(=O)C3CC3)C2)c(C)c1` (stereo unspecified), the cytotoxicity at 70.5 h is -6.39%.
As to `CCN(Cc1ccc(O)c(C(=O)O)c1)CC1CCCO1` (stereo unspecified), the cytotoxicity at 70.5 h came out at 24.1%.
As to `Cc1ccsc1CN(CCN(C)C)C(=O)c1ccc(C#N)nc1`, the cytotoxicity at 70.5 h is -8.67%.
For `CCC(=O)N1CCN(C(=O)CCn2cc(Cl)cn2)[C@H]2CS(=O)(=O)C[C@H]21`, the cytotoxicity at 70.5 h was -5.55%.
Regarding `Cc1cnc(C)c(N2CCN(CCCc3[nH]nc(C)c3C)CC2)n1`, the cytotoxicity at 70.5 h amounted to 1.19%.
In the case of `CCc1n[nH]c(SCC(=O)N2C[C@@H]3CC[C@H](C2)N(CC=C(C)C)C3)n1`, the cytotoxicity at 70.5 h came out at 0.686%.
`COCC(=O)N1CCC(C(=O)N(C)CCCc2nccn2C)CC1`: the cytotoxicity at 70.5 h was 1.13%.
As for `CCN(Cc1noc(CC(C)C)n1)Cc1ccccc1C(=O)O`, the cytotoxicity at 70.5 h is -6.37%.
Turning to `O=C(NC1CCCN(CCc2ccccc2)C1)c1cnccn1` (stereo unspecified), the cytotoxicity at 70.5 h is -3.22%.
As to `CCC(C)Oc1ccc(CNCCNC(C)=O)cc1Cl` (stereo unspecified), the cytotoxicity at 70.5 h was -3.38%.
For the molecule `Cc1nc(CN(C)Cc2csc(-c3cccs3)n2)co1`, the cytotoxicity at 70.5 h came to 6.2%.
The figure for `Cc1nc2c(c(NCc3ccccc3)n1)CCN(C(=O)NC(C)C)CC2` is 30.7%; for `c1ccc(Cc2n[nH]c(C3CCOC3)n2)cc1` (stereo unspecified) it is -3.76%.
In the case of `Cc1n[nH]c(C)c1CCNC(=O)Nc1ccc(S(C)(=O)=O)cc1`, the cytotoxicity at 70.5 h is -20%.
Turning to `CSCCC(=O)N1CCCCC1CCn1cccn1` (stereo unspecified), the cytotoxicity at 70.5 h was -6.75%.
The figure for `Cc1nccn1CCC1CCCCN1Cc1cccc(CCN)c1` (stereo unspecified) is -1.82%; for `CN(C)C(Cn1ccnc1-c1nccn1C)c1ccccc1Cl` (stereo unspecified) it is -5.92%; for `Cc1nc[nH]c1CN1CCOC(CCNC(=O)c2ccsc2)C1` (stereo unspecified) it is 2.08%.
`CN(Cc1ccsc1)Cc1nc(-c2ccncc2)no1`: the cytotoxicity at 70.5 h turned out to be 20.5%.
In the case of `Cc1ncsc1CCN(C)C(=O)CCc1nc2cccnc2n1C`, the cytotoxicity at 70.5 h is -11.9%.
The figure for `CCC[C@@H]1CN(C(=O)c2cc(-c3cccs3)n(C)n2)C[C@H]1NS(C)(=O)=O` is -4.08%.
The figure for `Cc1ccccc1C(CC(=O)NCc1n[nH]c(N)n1)c1ccccc1` (stereo unspecified) is -4.71%; for `Cc1nc(C(=O)N2CCC3(CC2)CC(=O)N(CC2CCCO2)C3)cs1` (stereo unspecified) it is -9.89%.
Consider `CSCCCN1CCc2nc(N(C)C)nc(N3CCC(O)CC3)c2C1`, for which the cytotoxicity at 70.5 h is -6.06%.
Take `Cc1nonc1CN1CC[C@@](O)(C2CCOCC2)[C@H](C)C1`: the cytotoxicity at 70.5 h is -11%.
The figure for `Cc1cc(CN2CCC(CNC(=O)Cc3ccc(F)cc3)C2)[nH]n1` (stereo unspecified) is -7.47%.
Turning to `CN(C)CCN1CC2(CCN(C(=O)c3cnccn3)CC2)OC1=O`, the cytotoxicity at 70.5 h is -2.71%.
The value for `CC(=O)c1ccc(NC(=O)NC(C(=O)N(C)C)C(C)C)cc1` (stereo unspecified) was -4.29%; that for `O=C1NCCCc2[nH]c(C3CCCN(C(=O)C4CC4)C3)nc21` (stereo unspecified) was -10.4%; that for `c1cc(CN2CCC(CCn3cccn3)CC2)cc(Cn2cccn2)c1` was -2.62%.
Turning to `CC(C)N1CCC(CC(=O)N2CCN(Cc3nccn3C)CC2)CC1`, the cytotoxicity at 70.5 h was -6.78%.
On to `O=C(CCc1cc(Cl)no1)N1CCCCC1CCn1ccnc1` (stereo unspecified), for which the cytotoxicity at 70.5 h was -5.27%.
For the molecule `COC(=O)c1cc2n(n1)CCN(C(=O)c1csc(CN(C)C)n1)C2`, the cytotoxicity at 70.5 h is -12.3%.
Take `CCC[C@@H]1CN(Cc2c[nH]nc2-c2ccc(OC)cc2)C[C@H]1NC(C)=O`: the cytotoxicity at 70.5 h is -7.5%.
`Cc1ccsc1CN(C)Cc1ncccc1C(=O)O`: the cytotoxicity at 70.5 h was -2.01%.
Take `Cc1csc2c(N3CCNC(C(=O)Nc4ccc(F)cc4)C3)ncnc12` (stereo unspecified): the cytotoxicity at 70.5 h is -9.29%.
`CCc1ccccc1CN1CCC(N2CCCC2=O)CC1`: the cytotoxicity at 70.5 h was -8.77%.
With `CN(CCN1CCCCC1=O)Cc1cc2cc3c(cc2[nH]c1=O)OCO3`, the cytotoxicity at 70.5 h was -8.86%.
For the molecule `COc1ncccc1C1CC(=O)Nc2cc(NS(C)(=O)=O)ccc21` (stereo unspecified), the cytotoxicity at 70.5 h is -9.6%.
With `N#CC1CCCN(S(=O)(=O)c2ccc(C(=O)NCC(F)F)cc2)C1` (stereo unspecified), the cytotoxicity at 70.5 h amounted to 3.7%.
As to `Cc1cccc(C(C(=O)NCc2cc(C)[nH]n2)N(C)C)c1` (stereo unspecified), the cytotoxicity at 70.5 h amounted to 7.18%.
With `COc1cccc2c1OCC(C(=O)N1CCSCC1)C2` (stereo unspecified), the cytotoxicity at 70.5 h was -8.37%.
`Cc1cccc(Cc2nc3c([nH]2)CCCNC3=O)c1`: the cytotoxicity at 70.5 h was -5.33%.
For `Cc1nnsc1CN(C)C(=O)CCn1cnc2ccccc21`, the cytotoxicity at 70.5 h was -9.98%.
On to `Cc1ccsc1[C@@H]1CCN(C(=O)CCc2cc(O)no2)C[C@H]1O`, for which the cytotoxicity at 70.5 h was -15.1%.
The figure for `CC(C)(C)C(=O)N[C@H]1CC[C@H](Nc2nccc(-c3ccncc3)n2)C1` is -6.97%; for `COc1c(C)cnc(CN2CCCCC2CCN2CCOCC2)c1C` (stereo unspecified) it is -11.7%; for `CN(C)C[C@@H]1CN(C(=O)c2cc(S(N)(=O)=O)ccc2F)C[C@@H]1CO` it is -4.5%.
For `COc1cccc2c1OCC(NCc1cnn(-c3ccccc3)c1)C2` (stereo unspecified), the cytotoxicity at 70.5 h was 14.4%.
The value for `COc1ccccc1OC1(C(=O)O)CCN(c2nccnc2OC)CC1` was 23.1%.
The figure for `C=C(C)COc1cccc(C(=O)N2CCC3(CC2)CN(C)CCN3C)c1` is -7.19%; for `COc1cccc(-c2cccc(N3CCC(N[C@@H]4CCOC4)CC3)c2)c1` it is 2.44%; for `CCc1noc(CN(C)Cc2cc3ccc(Cl)cc3[nH]c2=O)n1` it is -5.21%.
In the case of `Cc1nc2ccccc2nc1NCc1nnc2n1CCC2`, the cytotoxicity at 70.5 h amounted to 0.938%.
The value for `CCOC(=O)CNC(=O)N1CCc2onc(-c3ccc(Cl)cc3)c2C1` was -16.3%; that for `Cc1cc(NCCNS(C)(=O)=O)nc2cc3c(cc12)CCC3` was -5.01%; that for `Cc1ccc(C(=O)N2CC(C)(C)[C@@](C)(O)C2)cc1N1CCNC1=O` was 0.84%.
